According to patent publication US8802597B2, “Herbicidal pyrimidines” (E I du Pont de Nemours and Company, priority 2003, dated 2014):
Where two headings read alike, the source gives them in different places.

Tests used:
Assay type in all cases: in vivo
wild oat (Avena fatua) = test: Test B postemergence; conditions: Avena fatua, post-emergence, scale 0 to 100 (0 no effect, 100 complete control), read-out: Oat, Wild plant response rating
In short: (§1)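 Visual injury scored 0 (no effect) to 100 (complete control) versus untreated controls after 13 to 15 days in greenhouse. Treatments were pre- or postemergence sprays of surfactant-containing solvent formulations; postemergence plants at 1- to 4-leaf stage, 2 to 18 cm.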

[1] = system: blackgrass (Alopecurus myosuroides); test: Test B postemergence; conditions: Alopecurus myosuroides, post-emergence, scale 0 to 100 (0 no effect, 100 complete control), read-out: Blackgrass plant response rating
In short: as §1

[2] = system: umbrella sedge (Cyperus difformis); test: Test B flooded paddy test; conditions: Cyperus difformis, Flood, scale 0 to 100, read-out: Plant response rating, Sedge, Umbrella
In short: (§2)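 Rice, umbrella sedge, duck salad and barnyardgrass grown to 2-leaf stage under flooded paddy conditions and treated with formulated test chemicals. Kept in greenhouse 13–15 days, then visually rated against untreated controls on a 0–100 scale (0 no effect, 100 complete control).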

[3] = system: duck salad (Heteranthera limosa); test: Test B flooded paddy test; conditions: Heteranthera limosa, Flood, scale 0 to 100, read-out: Plant response rating, Ducksalad
In short: as §2

rice (Oryza sativa) = test: Test B flooded paddy test; conditions: Oryza sativa, Flood, scale 0 to 100, read-out: Plant response rating, Rice
In short: as §2

[4] = system: barnyardgrass (Echinochloa crus-galli); test: Test B flooded paddy test; conditions: Echinochloa crus-galli, Flood, scale 0 to 100, read-out: Plant response rating, Barnyardgrass
In short: as §2

[5] = system: pigweed (Amaranthus retroflexus); test: Test B pre/postemergence; conditions: Amaranthus retroflexus; for pest or weed control at 62 g/ha: 62 g ai/ha; for pest or weed control at 125 g/ha: 125 g ai/ha
In short: as §1

[6] = system: wheat (Triticum aestivum); test: Test B pre/postemergence; conditions: Triticum aestivum, scale 0 to 100 (0 no effect, 100 complete control); for plant injury at 62 g/ha: 62 g ai/ha; for plant injury at 125 g/ha: 125 g ai/ha
In short: as §1

[7] = system: morningglory (Ipomoea coccinea); test: Test B pre/postemergence; conditions: Ipomoea; for pest or weed control at 62 g/ha: 62 g ai/ha; for pest or weed control at 125 g/ha: 125 g ai/ha
In short: as §1

[8] = system: crabgrass (Digitaria sanguinalis); test: Test B pre/postemergence; conditions: Digitaria sanguinalis; for pest or weed control at 62 g/ha: 62 g ai/ha; for pest or weed control at 125 g/ha: 125 g ai/ha
In short: as §1

corn (Zea mays) = test: Test B pre/postemergence; conditions: Zea mays
In short: as §1

[9] = system: lambsquarters (Chenopodium album); test: Test B pre/postemergence; conditions: Chenopodium album; for pest or weed control at 62 g/ha: 62 g ai/ha; for pest or weed control at 125 g/ha: 125 g ai/ha
In short: as §1

[10] = system: Surinam grass (Brachiaria decumbens); test: Test B pre/postemergence; conditions: Urochloa decumbens; for pest or weed control at 125 g/ha: 125 g ai/ha; for pest or weed control at 62 g/ha: 62 g ai/ha
In short: as §1

[11] = system: giant foxtail (Setaria faberii); test: Test B pre/postemergence; conditions: Setaria faberi; for pest or weed control at 125 g/ha: 125 g ai/ha; for pest or weed control at 62 g/ha: 62 g ai/ha
In short: as §1

[12] = system: cocklebur (Xanthium strumarium); test: Test B pre/postemergence; conditions: Xanthium strumarium; for pest or weed control at 125 g/ha: 125 g ai/ha, scale 0 to 100 (0 no effect, 100 complete control)
In short: as §1

[13] = system: velvetleaf (Abutilon theophrasti); test: Test B pre/postemergence; conditions: Abutilon theophrasti; for pest or weed control at 62 g/ha: 62 g ai/ha; for pest or weed control at 125 g/ha: 125 g ai/ha
In short: as §1

[14] = system: barnyardgrass (Echinochloa crus-galli); test: Test B pre/postemergence; conditions: Echinochloa crus-galli, scale 0 to 100 (0 no effect, 100 complete control); for pest or weed control at 62 g/ha: 62 g ai/ha; for pest or weed control at 125 g/ha: 125 g ai/ha
In short: as §1

[15] = post-emergence, Postemergence, scale 0 to 100 (0 no effect, 100 complete control), read-out: Pigweed plant response rating
[16] = post-emergence, Postemergence, read-out: Wheat plant response rating
[17] = pre-emergence, Preemergence, read-out: Plant response rating, Wheat
[18] = post-emergence, Postemergence, scale 0 to 100 (0 no effect, 100 complete control), read-out: Morningglory plant response rating
[19] = post-emergence, Postemergence, scale 0 to 100 (0 no effect, 100 complete control), read-out: Crabgrass plant response rating
[20] = post-emergence, Postemergence, scale 0 to 100 (0 no effect, 100 complete control), read-out: Lambsquarters plant response rating
[21] = post-emergence, Postemergence, scale 0 to 100 (0 no effect, 100 complete control), read-out: Surinam Grass plant response rating
[22] = post-emergence, Postemergence, scale 0 to 100 (0 no effect, 100 complete control), read-out: Foxtail, Giant plant response rating
[23] = post-emergence, Postemergence, scale 0 to 100 (0 no effect, 100 complete control), read-out: Velvetleaf plant response rating
[24] = post-emergence, Postemergence, read-out: Barnyardgrass plant response rating
[25] = pre-emergence, Preemergence, read-out: Plant response rating, Barnyardgrass

SMILES: CNc1nc(C2CC2)nc(C(=O)OC)c1Cl [Compound 79]
- pest or weed control at 62 g/ha (wild oat (Avena fatua); 62 g ai/ha): 30%
- pest or weed control at 125 g/ha (wild oat (Avena fatua); 125 g ai/ha): 40%
- pest or weed control at 62 g/ha ([1]; 62 g ai/ha): 20%
- pest or weed control at 125 g/ha ([1]; 125 g ai/ha): 50%
- pest or weed control at 125 g/ha ([2]; 125 g ai/ha): 0%
- pest or weed control at 500 g/ha ([2]; 500 g ai/ha): 0%
- pest or weed control at 125 g/ha ([3]; 125 g ai/ha): 10%
- pest or weed control at 500 g/ha ([3]; 500 g ai/ha): 70%
- plant injury at 125 g/ha (rice (Oryza sativa); 125 g ai/ha): 0%
- plant injury at 500 g/ha (rice (Oryza sativa); 500 g ai/ha): 20%
- pest or weed control at 125 g/ha ([4]; 125 g ai/ha): 0%
- pest or weed control at 500 g/ha ([4]; 500 g ai/ha): 0%
- pest or weed control at 62 g/ha [5, 15]: 80%
- pest or weed control at 125 g/ha [5, 15]: 100%
- pest or weed control at 62 g/ha ([5]; pre-emergence, Preemergence, scale 0 to 100, 0 no effect, 100 complete control, read-out: Plant response rating, Pigweed): 80%
- pest or weed control at 125 g/ha ([5]; pre-emergence, Preemergence, scale 0 to 100 (0 no effect, 100 complete control), read-out: Plant response rating, Pigweed): 100%
- plant injury at 62 g/ha [6, 16]: 0%
- plant injury at 125 g/ha [6, 16]: 40%
- plant injury at 62 g/ha [6, 17]: 0%
- plant injury at 125 g/ha [6, 17]: 60%
- pest or weed control at 62 g/ha [7, 18]: 90%
- pest or weed control at 125 g/ha [7, 18]: 100%
- pest or weed control at 62 g/ha ([7]; pre-emergence, Preemergence, scale 0 to 100, 0 no effect, 100 complete control, read-out: Plant response rating, Morningglory): 70%
- pest or weed control at 125 g/ha ([7]; pre-emergence, Preemergence, scale 0 to 100 (0 no effect, 100 complete control), read-out: Plant response rating, Morningglory): 90%
- pest or weed control at 62 g/ha [8, 19]: 30%
- pest or weed control at 125 g/ha [8, 19]: 60%
- pest or weed control at 62 g/ha ([8]; pre-emergence, Preemergence, scale 0 to 100, 0 no effect, 100 complete control, read-out: Plant response rating, Crabgrass): 0%
- pest or weed control at 125 g/ha ([8]; pre-emergence, Preemergence, scale 0 to 100 (0 no effect, 100 complete control), read-out: Plant response rating, Crabgrass): 70%
- plant injury at 62 g/ha (corn (Zea mays); post-emergence, Postemergence, 62 g ai/ha, scale 0 to 100 (0 no effect, 100 complete control), read-out: Corn plant response rating): 20%
- plant injury at 125 g/ha (corn (Zea mays); post-emergence, Postemergence, 125 g ai/ha, scale 0 to 100 (0 no effect, 100 complete control), read-out: Corn plant response rating): 60%
- Corn plant response rating (crop injury, 0 = no effect, 100 = complete kill) at 62 g/ha (corn (Zea mays); pre-emergence, Preemergence, 62 g ai/ha, scale 0 to 100, 0 no effect, 100 complete control): 30%
- Corn plant response rating (crop injury, 0 = no effect, 100 = complete kill) at 125 g/ha (corn (Zea mays); pre-emergence, Preemergence, 125 g ai/ha, scale 0 to 100 (0 no effect, 100 complete control)): 60%
- pest or weed control at 62 g/ha [9, 20]: 90%
- pest or weed control at 125 g/ha [9, 20]: 100%
- pest or weed control at 62 g/ha ([9]; pre-emergence, Preemergence, scale 0 to 100, 0 no effect, 100 complete control, read-out: Plant response rating, Lambsquarters): 90%
- pest or weed control at 125 g/ha ([9]; pre-emergence, Preemergence, scale 0 to 100 (0 no effect, 100 complete control), read-out: Plant response rating, Lambsquarters): 90%
- pest or weed control at 125 g/ha [10, 21]: 60%
- pest or weed control at 62 g/ha [10, 21]: 20%
- pest or weed control at 125 g/ha ([10]; pre-emergence, Preemergence, scale 0 to 100 (0 no effect, 100 complete control), read-out: Plant response rating, Surinam Grass): 0%
- pest or weed control at 62 g/ha ([10]; pre-emergence, Preemergence, scale 0 to 100, 0 no effect, 100 complete control, read-out: Plant response rating, Surinam Grass): 0%
- pest or weed control at 125 g/ha [11, 22]: 70%
- pest or weed control at 62 g/ha [11, 22]: 40%
- pest or weed control at 125 g/ha ([11]; pre-emergence, Preemergence, scale 0 to 100 (0 no effect, 100 complete control), read-out: Plant response rating, Foxtail, Giant): 20%
- pest or weed control at 62 g/ha ([11]; pre-emergence, Preemergence, scale 0 to 100, 0 no effect, 100 complete control, read-out: Plant response rating, Foxtail, Giant): 0%
- pest or weed control at 125 g/ha ([12]; post-emergence, Postemergence, read-out: Cocklebur plant response rating): 60%
- pest or weed control at 62 g/ha ([12]; pre-emergence, Preemergence, 62 g ai/ha, scale 0 to 100, 0 no effect, 100 complete control, read-out: Plant response rating, Cocklebur): 50%
- pest or weed control at 125 g/ha ([12]; pre-emergence, Preemergence, read-out: Plant response rating, Cocklebur): 80%
- pest or weed control at 62 g/ha [13, 23]: 50%
- pest or weed control at 125 g/ha [13, 23]: 80%
- pest or weed control at 62 g/ha ([13]; pre-emergence, Preemergence, scale 0 to 100, 0 no effect, 100 complete control, read-out: Plant response rating, Velvetleaf): 50%
- pest or weed control at 125 g/ha ([13]; pre-emergence, Preemergence, scale 0 to 100 (0 no effect, 100 complete control), read-out: Plant response rating, Velvetleaf): 80%
- pest or weed control at 62 g/ha [14, 24]: 50%
- pest or weed control at 125 g/ha [14, 24]: 80%
- pest or weed control at 62 g/ha [14, 25]: 0%
- pest or weed control at 125 g/ha [14, 25]: 70%
